Source: EP1760056A1, “A convenient method for the preparation of no-carrier-added O-(2-[18F]fluoroethyl)-L-Tyrosine)” (Institute of Nuclear Energy Research, priority 2005, dated 2007)
Like-named read-outs stand apart in the source and are kept apart here.

Legend:
[1] = system: F98 glioma cells; assay: Biological distribution of L-[18F]FET in F98 glioma-bearing Fischer 344 rat; conditions: in vivo
Method: (§1) • (1) Total of twenty Fischer 344 male rats will be assessed in vivo for L-[^18F]FET biological distribution. Use the intersection of bregma and sagittal midlines as original point; so as to implant F98 glioma cells (1 × 10^5cells /10 µl) at the place of 3mm left 5mm upward and 5mm depth. Biological distribution test will be carry out after 11~12 days of brain tumor implantation. • (2) Different volume of radioactive level is injected, injected volume of L-[^18F]FET for each Fischer 344 rat is 200~300µl, that is approximately 200~250 µCi of activity. • (3) Inject L-[^18F]FET via tail vein, and rats are sacrificed at 15, 30, 60, 90 and 120 minutes. • (4) Dissection of rat organ is right after sacrifice. Scissors off chest and abdomen fur alone the line from genital pore upward to jowl. Next, scissors off chest above xiphisternal transversely. Open ribs aside, take blood sample from venous sinus with 0.5 ml syringe. Withdraw the needle after depletion of blood and collect the extracted heart. Collect the lung lobes with forcep. • (5) Scissors off abdominal muscle from genital pore upward to the position below xiphisternal longitudinally. Then, scissors off the opening of upper and lower edges transversely, everts muscle layers to both sides and expose celiac organs. Search for bladder in lower abdomen and sequentially removes stomach, liver, spleen, small intestine, large intestine, kidney, and muscle. • (6) After turn over the rat, scissors off fur of shoulder and removes exposed subcutaneous tumor. Cut scalp upward at lower margin of cranium above foramen magnum and expose cranial bone. Then, cut cervical portion transversely at foramen magnum and expose spinal cord. Inserts foramen magnum with scissors' tip while attach the inner surface of cranium; such that scissors' tip can reach the frontal edge of cranial cavity in order to scissor off the center of cranium. Use scissors to open cranium aside and expose brain tissue. Alone skull base insert scissors deeply to the front edge of cranial cavity in order to remove left-brain, right-brain and brain tumor. • (7) Weight all organ samples; measure radioactivity with γ-counter and convert to %ID/g (% injection dose/g organ) of each organ for estimate the biological distribution of L-[^18F]FET. […] According to reports, L-[^18F]FET can pass through blood brain barrier (BBB) and enter brain by way of L amino acid transporter system. […] Tumor-to-normal brain ratio of L-[^18F]FET at 15, 30, 60, 90 and 120 minutes are 1.54, 1.74, 3.16, 3.14 and 2.34 respectively. Besides brain tumor, rat pancreas also accumulate large amount of L-[^18F]FET (0.98, 1.76, 2.55, 2.28 and 2.24 %ID/g respectively at 15, 30, 60, 90 and 120 minutes); the increasing radioactivity of L-[^18F]FET in pancreas is because of pancreas require large amount of amino acid for synthesis various enzymes and hormones. Some papers reported that patient with tumor observes no significant accumulation of radioactivity in pancreas when use positron emission tomography (PET), the discrepant results were assumed that human and rat have different metabolic pathway. Furthermore, biological distribution study of L-[^18F]FET indicated radioactivity accumulation in tumor cells (expressed by %ID/g) are much higher than other normal organs (left-brain, small intestine, kidney, liver, blood and muscle) except pancreas, this means L-[^18F]FET can be a potential PET agent for substantially different site of tumor. […] Table 1: Determination of accumulated radioactivity (%ID/g) in organs at different time points after injected L-[18F]FET into tumor-bearing rat

[2] = as above; conditions: in vivo, iv; for tissue uptake at 0.25 h: 15 min after injection via tail vein; for tissue uptake at 0.5 h: 30 min after injection via tail vein; for tissue uptake at 1 h: 60 min after injection via tail vein; for tissue uptake at 2 h: 120 min after injection via tail vein
Method: as §1

[3] = system: brain tumor (F98 glioma); assay: PET and microPET imaging of tumor-bearing rat with L-[18F]FET; format: in vivo, rat (Fischer 344); conditions: 400 µCi into tail vein
Method: • (1) Positron emission tomography (PET) studies of tumor-bearing rat (Fischer 344) with L-[^18F]FET will be carry out after 11~12 days of brain tumor (F98 glioma) implantation. • (2) Producing processes of L-[^18F]FET as described above, and estimates its administrating amount of agent according to the level of radioactivity. • (3) At the very beginning, inject 400 µCi of L-[^18F]FET into tail vein. Temporarily anesthetize rats with ether at time of 0.5, 1, 1.5 and 2 hours. Fix rat on transparent acrylic board and place on PET table after securing stretched limbs on the board. Continuously anesthetize rats with isoflurane gas. Align implant portion of head with PET machine as to assure the fixation of original imaging position. • (4) Adjust background value by blank scan before PET imaging. • (5) Use Ga-68 radioactive source proceed transmission scan for adjust tissue attenuation. • (6) Commence PET and microPET imaging. Perform image processing after reconstruction of acquired image data; the coronal and cross section scans show in Figure 3 and 9. […] In contrast to tumor site, normal tissue have lower radioactivity accumulation of L-[^18F]FET because of lower amino acid requirement.

[4] = system: F98 glioma cells; assay: L-[18F]FET uptake by F98 glioma tumor cells; format: cell-based, rat; conditions: 10 µCi/well
Method: • (1) In five six-well plates, put 1×10^6 F98 glioma cells and 2 ml DMEM (1g glucose/1) into three wells. • (2) Total of five time points (2, 5, 10, 30 minute and 1hour) in this experiment and each time point use one six-well plate. • (3) Predetermined activity of L-[^18F]FET or [^18F]FDG (10 µCi/well) is added into each well during the experiment. […] F98 glioma cells intake L-[^18F]FET rapidly and maximal accumulation will reach after 10 minutes (uptake ratio 0.47%). As cell cannot metabolize L-[^18F]FET, therefore, the rate of L-[^18F]FET transportation by the cells become balance after ten minutes when add L-[^18F]FET; the accumulation of L-[^18F]FET in glioma cells only slightly decrease after 1 hour (uptake ratio 0.41%).

[5] = Liver, read-out: accumulated radioactivity
[6] = Lung, read-out: accumulated radioactivity
[7] = Muscle, read-out: accumulated radioactivity
[8] = Pancreas, read-out: accumulated radioactivity
[9] = Right brain, read-out: accumulated radioactivity

N[C@@H](Cc1ccc(OCC[18F])cc1)C(=O)O [L-[^18F]FET, O-(2-[^18F]fluoroethyl)-L-Tyrosine]
Tumor-to-normal brain ratio ([1]; 15 min): 1.54 | Tumor-to-normal brain ratio ([1]; 30 min): 1.74 | Tumor-to-normal brain ratio ([1]; 60 min): 3.16 | Tumor-to-normal brain ratio ([1]; 90 min): 3.14 | Tumor-to-normal brain ratio ([1]; 120 min): 2.34 | tissue uptake at 0.25 h [2, 5]: 0.27 ± 0.06 %ID/g | tissue uptake at 0.5 h [2, 5]: 0.37 ± 0.07 %ID/g | tissue uptake at 1 h [2, 5]: 0.41 ± 0.06 %ID/g | tissue uptake at 1.5 h ([2]; Liver, 90 min after injection via tail vein, read-out: accumulated radioactivity): 0.49 ± 0.01 %ID/g | tissue uptake at 2 h [2, 5]: 0.41 ± 0.09 %ID/g | tissue uptake at 0.25 h [2, 6]: 0.32 ± 0.05 %ID/g | tissue uptake at 0.5 h [2, 6]: 0.43 ± 0.09 %ID/g | tissue uptake at 1 h [2, 6]: 0.43 ± 0.07 %ID/g | tissue uptake at 1.5 h ([2]; Lung, 90 min after injection via tail vein, read-out: accumulated radioactivity): 0.45 ± 0.02 %ID/g | tissue uptake at 2 h [2, 6]: 0.4 ± 0.06 %ID/g | tissue uptake at 0.25 h [2, 7]: 0.19 ± 0.03 %ID/g | tissue uptake at 0.5 h [2, 7]: 0.28 ± 0.01 %ID/g | tissue uptake at 1 h [2, 7]: 0.36 ± 0.04 %ID/g | tissue uptake at 1.5 h ([2]; Muscle, 90 min after injection via tail vein, read-out: accumulated radioactivity): 0.44 ± 0.1 %ID/g | tissue uptake at 2 h [2, 7]: 0.37 ± 0.1 %ID/g | tissue uptake at 0.25 h [2, 8]: 0.98 %ID/g | tissue uptake at 0.5 h [2, 8]: 1.76 %ID/g | tissue uptake at 1 h [2, 8]: 2.55 %ID/g | tissue uptake at 1.5 h ([2]; Pancreas, 90 min after injection via tail vein, read-out: accumulated radioactivity): 2.28 %ID/g | tissue uptake at 2 h [2, 8]: 2.24 %ID/g | tissue uptake at 0.25 h [2, 9]: 0.07 ± 0.02 %ID/g | tissue uptake at 0.5 h [2, 9]: 0.21 ± 0.03 %ID/g | tissue uptake at 1 h [2, 9]: 0.34 ± 0.03 %ID/g | tissue uptake at 1.5 h ([2]; Right brain, 90 min after injection via tail vein, read-out: accumulated radioactivity): 0.48 ± 0.08 %ID/g | tissue uptake at 2 h [2, 9]: 0.34 ± 0.04 %ID/g | tissue uptake at 1.5 h ([2]; maximum accumulation in normal brain tissue): 0.48 %ID/g | radioactivity accumulation in brain tumor [3]: significant radioactivity accumulation in brain tumor | time of maximum uptake in brain tumor ([3]; time after injection): 90 min | uptake ratio ([4]; after 10 minutes (maximal accumulation)): 0.47% | uptake ratio ([4]; after 1 hour): 0.41%
